Test results published in PubChem BioAssay (NCI).
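Five compound concentrations were applied to cells in 96-well plates for 48 hours; endpoints were derived by simple linear interpolation of the resulting dose-response curve. GI50 = concentration required for 50% inhibition of growth. TGI: total growth inhibition.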

What was measured:
Experiment in all cases: NCI tumour cell line growth inhibition, 48 h
[1] = test system: K-562 leukemia
[2] = test system: MOLT-4 leukemia
[3] = test system: HCT-116 colon
[4] = test system: SF-539 CNS
[5] = test system: LOX IMVI melanoma
[6] = test system: ACHN renal
[7] = test system: SF-295 CNS
[8] = test system: HCC-2998 colon
[9] = test system: PC-3 prostate
[10] = test system: T-47D breast

SMILES: CC(C)(c1ccccc1)c1ccc(Oc2ccc(C#N)c(C#N)c2)cc1
- TGI [1]: > 100 µM
- TGI [2]: > 100 µM
- TGI [3]: > 100 µM
- GI50 [4]: > 100 µM
- TGI [4]: > 100 µM
- GI50 [5]: > 100 µM
- TGI [5]: > 100 µM
- TGI [6]: > 100 µM
- TGI [7]: > 100 µM
- GI50 [8]: > 100 µM
- TGI [8]: > 100 µM

SMILES: CCSc1nc(SCC)c2c(-c3ccc(OC)c(OC)c3)c(C#N)c(SCC)nc2n1
- GI50 [1]: 85.1 µM
- TGI [1]: > 100 µM
- GI50 [2]: 68.5 µM
- TGI [2]: > 100 µM
- GI50 [9]: 26.6 µM
- TGI [9]: > 100 µM
- GI50 [3]: 30.3 µM
- TGI [3]: > 100 µM
- GI50 [4]: 1.95 µM
- TGI [4]: 17.2 µM
- GI50 [5]: 22.9 µM
- TGI [5]: 60.1 µM
- GI50 [6]: 17.8 µM
- TGI [6]: 38 µM
- GI50 [7]: 12.9 µM
- TGI [7]: 39.9 µM
- GI50 [8]: 21 µM
- TGI [8]: 49.2 µM

SMILES: O=C(Nc1ccc(Oc2cccc(F)c2)c(Cl)c1)c1cnccn1
- GI50 [1]: 0.242 µM
- TGI [1]: > 50 µM
- GI50 [10]: 1.33 µM
- TGI [10]: > 50 µM
- GI50 [2]: 1.85 µM
- TGI [2]: > 50 µM
- GI50 [3]: 0.596 µM
- TGI [3]: > 50 µM
- GI50 [4]: 1.35 µM
- TGI [4]: > 50 µM
- GI50 [5]: 1.69 µM
- TGI [5]: > 50 µM
- GI50 [6]: 3.3 µM
- TGI [6]: > 50 µM
- GI50 [7]: 1.56 µM
- TGI [7]: > 50 µM
- GI50 [8]: 6.04 µM
- TGI [8]: > 50 µM

SMILES: O=C(O)c1nc(-c2ccc(Cl)c(Cl)c2)nc2ccc(Cl)cc12
- TGI [1]: > 10 µM
- TGI [2]: > 100 µM
- TGI [3]: > 100 µM
- TGI [4]: > 100 µM
- TGI [6]: > 100 µM
- TGI [7]: > 100 µM
- TGI [8]: > 100 µM

SMILES: CC(=O)O[C@H]1CCC2[C@@H]3CCC4c5nonc5CC[C@]4(C)C3CC[C@@]21C (some centres not stated)
- GI50 [1]: > 100 µM
- TGI [1]: > 100 µM
- TGI [2]: > 10 µM
- GI50 [3]: > 100 µM
- TGI [3]: > 100 µM
- TGI [4]: > 10 µM
- TGI [5]: > 10 µM
- GI50 [6]: > 10 µM
- TGI [6]: > 100 µM
- TGI [7]: > 10 µM
- GI50 [8]: > 100 µM
- TGI [8]: > 100 µM

SMILES: CCOC(=O)/C(O)=C(/C(=O)OC)c1ccc(Cl)cc1
- TGI [1]: > 100 µM
- TGI [2]: > 100 µM
- TGI [4]: > 100 µM
- TGI [5]: > 100 µM
- TGI [6]: > 100 µM
- TGI [7]: > 100 µM
- TGI [8]: > 100 µM

SMILES: CN(C)C(=O)c1ccc([N+](=O)[O-])cc1
- TGI [1]: > 100 µM
- TGI [2]: > 100 µM
- TGI [3]: > 100 µM
- TGI [4]: > 100 µM
- TGI [5]: > 100 µM
- TGI [6]: > 100 µM
- TGI [7]: > 100 µM
- TGI [8]: > 100 µM

SMILES: Oc1c(Cl)c(Cl)c(O)c2c1CCCC2
- TGI [9]: 36.7 µM
- TGI [3]: 2.83 µM
- TGI [4]: 23.5 µM
- TGI [5]: 78.6 µM
- TGI [6]: 3.27 µM
- TGI [7]: 37.6 µM
- TGI [8]: 30.6 µM

SMILES: CN(C)C(=O)c1cnc2oc3ccc(O)cc3c2c1-c1ccccc1
- GI50 [1]: > 25 µM
- TGI [1]: > 25 µM
- GI50 [2]: > 25 µM
- TGI [2]: > 25 µM
- GI50 [9]: 16.6 µM
- TGI [9]: > 25 µM
- GI50 [3]: > 25 µM
- TGI [3]: > 25 µM
- GI50 [5]: > 25 µM
- TGI [5]: > 25 µM
- GI50 [6]: > 25 µM
- TGI [6]: > 25 µM
- GI50 [7]: > 25 µM
- TGI [7]: > 25 µM

SMILES: COc1cc([N+](=O)[O-])c(OC)cc1-c1nc2sccn2c1/C=N/N=C(N)N
- GI50 [1]: 1.03 µM
- TGI [1]: > 100 µM
- GI50 [10]: 22.2 µM
- TGI [10]: > 100 µM
- GI50 [2]: > 100 µM
- TGI [2]: > 100 µM
- GI50 [9]: 24.2 µM
- TGI [9]: > 100 µM
- GI50 [3]: 21.7 µM
- TGI [3]: 94.4 µM
- GI50 [4]: 12 µM
- TGI [4]: 46.5 µM
- GI50 [5]: 17.9 µM
- TGI [5]: 41.5 µM
- GI50 [6]: 12.8 µM
- TGI [6]: 28.8 µM
- GI50 [7]: 19.5 µM
- TGI [7]: > 100 µM

SMILES: CCOC(=O)C1CCCCN1C(=O)c1ccc(Nc2cnc3cc(C(F)(F)F)ccc3n2)cc1 (configuration not stated)
- GI50 [1]: 15.1 µM
- TGI [1]: > 100 µM
- GI50 [10]: 6.91 µM
- TGI [10]: > 100 µM
- GI50 [2]: 3.93 µM
- TGI [2]: > 100 µM
- GI50 [9]: 11.5 µM
- TGI [9]: 26.9 µM
- GI50 [3]: 14.9 µM
- TGI [3]: 28.1 µM
- GI50 [4]: 15.8 µM
- TGI [4]: 37.1 µM
- GI50 [5]: 3.62 µM
- TGI [5]: 16.4 µM
- GI50 [6]: 15.4 µM
- TGI [6]: 43.4 µM
- GI50 [7]: 3.31 µM
- TGI [7]: 9.24 µM

SMILES: COC(=O)C1=C(C)NC(C)=C(C(=O)OCC(C)C)C1c1ccccc1[N+](=O)[O-] (configuration not stated)
- GI50 [10]: 3.9 µM
- TGI [10]: 16.4 µM
- GI50 [2]: 3.31 µM
- TGI [2]: 18.9 µM
- GI50 [9]: 3.54 µM
- TGI [9]: 16.9 µM
- GI50 [3]: 3.02 µM
- TGI [3]: 12.1 µM
- GI50 [4]: 5.3 µM
- TGI [4]: 16.8 µM
- GI50 [5]: 3.07 µM
- TGI [5]: 16.6 µM
- GI50 [6]: 2.22 µM
- TGI [6]: 10.6 µM
- GI50 [8]: 6.18 µM
- TGI [8]: 22.4 µM

SMILES: CNC(=O)OCc1c2ccncc2c(C)c2c1[nH]c1ccc(OC)cc12
- TGI [1]: 2.48 µM
- TGI [2]: 0.516 µM
- TGI [3]: 0.777 µM
- TGI [4]: 0.719 µM
- TGI [5]: > 100 µM
- TGI [6]: 0.563 µM
- TGI [7]: > 100 µM
- TGI [8]: 1.02 µM

SMILES: C[CH2][Sn]([CH2]C)([O]C(=O)c1ccccc1F)[O][Sn]([CH2]C)([CH2]C)[O]C(=O)c1ccccc1F
- GI50 [1]: 13.5 µM
- TGI [1]: 36.6 µM
- GI50 [2]: 22 µM
- TGI [2]: > 75.3 µM
- GI50 [3]: 38 µM
- TGI [3]: > 70.9 µM
- GI50 [4]: 20.5 µM
- TGI [4]: 46.9 µM
- GI50 [5]: 19.4 µM
- TGI [5]: 37.1 µM
- GI50 [6]: 18.7 µM
- TGI [6]: 33 µM
- GI50 [7]: 42.1 µM
- TGI [7]: > 57.8 µM
- GI50 [8]: > 43.7 µM
- TGI [8]: > 73.8 µM

SMILES: O=S(=O)(/C=C/CS(=O)(=O)c1ccccc1)c1ccccc1
- TGI [1]: 98.4 µM
- TGI [2]: 74 µM
- TGI [3]: 57.1 µM
- TGI [4]: 43.6 µM
- TGI [5]: 57.4 µM
- TGI [6]: > 100 µM
- TGI [7]: 93.6 µM
- TGI [8]: 57.1 µM

SMILES: COC(=O)C(CC1=C(O)Nc2ccccc2N1)/C(=N/NC(N)=O)C(=O)Nc1ccccc1C (configuration not stated)
- TGI [1]: > 100 µM
- TGI [2]: > 100 µM
- TGI [3]: 36.8 µM
- TGI [4]: > 100 µM
- TGI [5]: 35 µM
- TGI [6]: > 100 µM
- TGI [7]: > 100 µM
- TGI [8]: > 100 µM

SMILES: CCN(CC)c1oc(N(CC)CC)c(C(=O)Nc2ccccn2)c(=O)c1C(C)=O
- TGI [1]: > 100 µM
- TGI [2]: > 100 µM
- TGI [3]: > 100 µM
- TGI [4]: > 100 µM
- TGI [6]: > 100 µM

SMILES: O=C(NC(=Nc1ccccc1)SCCSC(=Nc1ccccc1)NC(=O)c1cccs1)c1cccs1
- TGI [1]: > 100 µM
- TGI [2]: > 100 µM
- TGI [3]: > 100 µM
- TGI [4]: > 100 µM
- TGI [5]: > 100 µM
- TGI [6]: > 100 µM
- TGI [7]: > 100 µM
- TGI [8]: > 100 µM
